{"source": "patent US12404332B2", "about": "“Methods for diagnosing and treating cancers” (Research Development Foundation, priority 2020, dated 2025)", "key": {"[1]": {"system": "CTRL and PD-L1^KO RT4 cells", "test": "Viability of RT4 cells treated with Chk1 inhibitor plus atezolizumab", "format": "cell-based, human", "settings": "in vitro, absence of immune cells", "protocol": "FIGS. 27A-H: Anti-PD-L1 antibodies mimic genetic PD-L1 depletion to impair tumor cell-intrinsic DDR signals and promote sensitivity to Chk1 inhibition in vitro and in vivo. Cell viability of FIG. 27A, CTRL and FIG. 27B, PD-L1^KORT4 cells treated with LY2603618 (Chk1 inhibitor) as shown plus IgG1 isotype or atezolizumab (atezo, 3 μg/ml) for 72 hours in vitro. Mean+SEM, n=6 replicates, ***, P<0.001, unpaired t-test. FIG. 27C, Immunoblot (IB) analysis of ATM, Chk2, γH2AX and vinculin (VINC) of RT4 cells treated in vitro with isotype, atezolizumab, Chk1i, or their combination. FIG. 27D, Viability of 4T1 cells as in panel A substituting anti-murine PD-L1 and isotype controls. FIG. 27E, IB of 4T1 as in panel FIG. 27C. FIG. 27F, Tumor curves of NSG mice (n=10 tumors/group) challenged with 4T1 tumor cells and treated with Chk1i±αPD-L1. FIG. 27G, Tumor curves and FIG. 27H, tumor weights in WT […] mice challenged and treated as in panel FIG. 27F. P values, two-way ANOVA."}, "[2]": {"system": "MB49 murine bladder cancer cells", "test": "In vitro viability (MTT) of CTRL versus PD-L1^KO MB49 cells", "format": "cell-based, mouse", "protocol": "(§1) Cells (1×10^3) were plated in 96 well plastic culture plates in respective medium and treated for 5 days with DDRi or 3 days with gemcitabine at indicated concentrations. Drug concentrations were carefully optimized in preliminary work not shown. Cell viability was by MTT (3-(4,5-dimethylthiazol-2-yl)-2,5-diphenyl tetrazolium bromide) at 5 mg/ml. Absorbance was measured at 540 nm. Results are presented as a mean+/−SEM of ≥6 replicates. Total cells and viability were confirmed using a Vi-Cell-XR (Beckman Coulter)."}, "[3]": {"system": "ID8agg murine ovarian cancer cells", "test": "In vitro viability (MTT) of CTRL versus PD-L1^KO ID8agg cells", "format": "cell-based, mouse", "protocol": "as §1"}, "[4]": {"system": "CTRL or PD-L1^KO B16 tumors", "test": "B16 tumor growth in wild type or RAG2^KO mice", "format": "in vivo, mouse", "protocol": "B16 cells were injected subcutaneously on opposite flanks into BL6 (0.5×10^6 cells) or RAG2^KO mice (0.4×10^6). Olaparib was administered daily intraperitoneally (50 mg/kg, 4% DMSO) on days 3-13. Tumors were measured with Vernier calipers and volume calculated as (length×width^2)/2. Mice were sacrificed when tumors reached ˜1500 mm^3 or if distressed."}, "[5]": {"system": "B16 murine melanoma cells", "test": "In vitro viability (MTT) of CTRL versus PD-L1^KO B16 cells", "format": "cell-based, mouse", "protocol": "as §1"}, "[6]": {"system": "RT4 human bladder cancer cells", "test": "In vitro viability (MTT) of CTRL versus PD-L1^KO RT4 cells", "format": "cell-based", "settings": "for sensitivity of PD-L1^KO versus control RT4 cells to the agent: monotherapy", "protocol": "as §1"}, "[7]": {"system": "CTRL or PD-L1^KO MB49 tumors", "test": "MB49 tumor growth in NSG mice", "format": "in vivo, mouse", "settings": "PD-L1^KO but not control MB49 tumors", "protocol": "NSG mice were challenged with MB49 (0.3×10^6 cells) subcutaneously on opposite flanks. Olaparib (daily 25 mg/kg, 4% DMSO) was injected intraperitoneally on days 3-11. 4T1 (0.5×10^6 cells) were injected into mammary fat pads of NSG mice with Matrigel (1:1, Corning). Rabusertib (LY2602618, 4% DMSO) was administered intraperitoneally on day 3 (10 mg/kg) and days 10 and 17 (1 mg/kg)."}, "Chk2": {"system": "Chk2", "test": "Chk2 protein content by immunoblot in B16-F10 cells", "format": "cell-based, mouse", "settings": "PD-L1^KO but not CTRL B16-F10 cells"}, "γH2AX in RT4 cells": {"system": "γH2AX in RT4 cells", "test": "γH2AX immunoblot (DNA damage) in RT4 cells", "format": "cell-based, human", "protocol": "(§2) Immunoblotting was performed as described (Clark et al., 2016; Gupta et al., 2016). Protein was measured by BCA (ThermoFisher). Cell Signaling antibodies were phospho-histone H2A.X (#9718), phospho-Chk1^Ser345 (#2348), phosph-Chk2^Thr68 (#2197), phospho-ATM^Ser1981 (#5883), phospho-ATR^Ser428 (#2853), total-Chk1 (#2360), total-chk2 (#2662), total-ATM (#2873), total-ATR (#13934), total-NBS1 (#14956), total-Rad50 (#3427), RAD51, vinculin (#13901), beta-actin (#12620), human-PD-L1 (#13684), mouse-PD-L1. Abcam antibodies were (ab3801) and (ab80276) and total-BRCA1 was R&D MAB22101. All were used as per manufacturer's recommendation."}, "PD-L1": {"system": "PD-L1", "test": "PD-L1 after DNA damaging agents", "format": "cell-based"}, "γH2AX in ID8agg cells": {"system": "γH2AX in ID8agg cells", "test": "γH2AX immunoblot (DNA damage) in ID8agg cells", "format": "cell-based, mouse", "protocol": "as §2"}, "ID8agg cells": {"system": "ID8agg cells", "test": "Erlotinib plus olaparib in ID8agg cells (MTT)", "format": "cell-based, mouse", "protocol": "1,000 ID8agg cells were plated per well in 96 well plates. Cells were treated with 1, 2, or 3 μM of erlotinib and 5 μM or olaparib."}}, "note": "“Also recorded” adds a separate entry of the source.", "data": [{"compound": "atezolizumab", "values": [{"measurement": "viability of RT4 cells, single agent", "setting": "[1]", "value": "slightly reduced viability"}]}, {"compound": "O=C(c1cc(Cc2n[nH]c(=O)c3ccccc23)ccc1F)N1CCN(C(=O)C2CC2)CC1", "note": "[olaparib]", "values": [{"measurement": "sensitivity of PD-L1^KO versus control MB49 cells to the agent", "setting": "[2]", "value": "more sensitive"}, {"measurement": "sensitivity of PD-L1^KO versus control ID8agg cells to the agent", "setting": "[3]; monotherapy", "value": "Minimal effects"}, {"measurement": "limiting PD-L1^KO B16 tumors", "setting": "[4]; RAG2^KO mice lacking adaptive immunity", "value": "ineffective"}, {"measurement": "control of PD-L1^KO versus control B16 growth", "setting": "[4]; wild type mice", "value": "significantly more effective"}, {"measurement": "cytotoxicity against PD-L1^KO versus control B16 cells", "setting": "[5]", "value": "Moderate differences"}, {"measurement": "sensitivity of PD-L1^KO versus control RT4 cells to the agent", "setting": "[6]", "value": "Minimal effects"}, {"measurement": "tumor growth and weight after treatment", "setting": "[7]", "value": "robustly growth inhibited and weighed less"}]}, {"compound": "CO/C1=C\\C(C)=C\\[C@@H](C)[C@@H](O)[C@@H](C)C/C(C)=C/C=C/[C@H](OC)[C@@H]([C@@H](C)[C@@H](O)[C@H](C)[C@@]2(O)C[C@@H](O)[C@H](C)[C@@H](C(C)C)O2)OC1=O", "note": "[Bafilomycin A1]", "values": [{"measurement": "Chk2 accumulation", "setting": "Chk2", "value": "led to Chk2 accumulation"}]}, {"compound": "Nc1ccn([C@@H]2O[C@H](CO)[C@@H](O)C2(F)F)c(=O)n1", "note": "[gemcitabine]", "values": [{"measurement": "γH2AX following treatment, PD-L1^KO versus control cells", "setting": "γH2AX in RT4 cells", "value": "markedly elevated; also recorded: accumulated more γH2AX"}, {"measurement": "PD-L1 after DNA damaging agent", "setting": "PD-L1", "value": "increased PD-L1"}, {"measurement": "fold more sensitive to gemcitabine, PD-L1^KO versus control cells", "setting": "[3]; ID8agg cells", "value": 29, "unit": "fold"}, {"measurement": "γH2AX following treatment, PD-L1^KO versus control cells", "setting": "γH2AX in ID8agg cells", "value": "markedly elevated"}, {"measurement": "fold more sensitive to gemcitabine, PD-L1^KO versus control cells", "setting": "[6]; RT4 cells", "value": 2, "unit": "fold"}, {"measurement": "sensitivity of PD-L1^KO versus control RT4 cells to the agent", "setting": "[6]", "value": "substantially lower viability"}]}, {"compound": "C#Cc1cccc(Nc2ncnc3cc(OCCOC)c(OCCOC)cc23)c1", "note": "[erlotinib]", "values": [{"measurement": "olaparib activity in combination", "setting": "ID8agg cells; FIG. 46A", "value": "Olaparib activity is seen with erlotinib"}, {"measurement": "PD-L1 depletion over time", "setting": "ID8agg cells; previous western, 24 hours, but not at 48 hours", "value": "only depletes PD-L1 for short periods of time"}]}]}
